{
  "source": "patent US9451771B2",
  "about": "“Compositions and methods to attract the brown marmorated stink bug (BMSB), Halyomorpha halys” (United States of America as Represented by the Secretary of …, priority 2012, dated 2016)",
  "tested_on": "brown marmorated stink bug (BMSB), Halyomorpha halys",
  "test": "Field trials of experimental pheromone constituents, baited black pyramid traps",
  "type": "in vivo",
  "excerpt": "Field Bioassays. Field Trials of Experimental Pheromone Constituents: Pyramid traps based on dimensions previously used for native stink bugs (Leskey and Hogmire 2005, Hogmire and Leskey 2006) and for brown marmorated stink bugs (Leskey et al. 2012c) were used for all trials. […] Each panel was 1.22 m high, 52 cm wide at the base, and 7 cm wide at the top. Collection jars were constructed based on previously published dimensions (Hogmire and Leskey 2006) with internal cone opening of 1.6 cm with trimmed wire edging to reduce escape. In addition, a Hercon Vaportape™ II (Hercon Environmental, Emigsville, Pa.) was added as a killing agent to prevent escape from traps. In a preliminary study, addition of a killing agent increased trap captures ˜250%. Traps were deployed ˜5 meters from the border of apple and pear orchards at the Appalachian Fruit Research Station or in the border area between wood lots and row crops in Kearneysville, W. Va., Shepherdstown, W. Va., Keedysville, Md., and Beltsville, Md. Traps were spaced ˜50 meters apart. Traps were baited with compounds identified from headspace collections of male BMSB, synthesized and formulated into gray rubber septa or left unbaited.\nFourteen trials were conducted between 19 Apr. to 20 Oct. 2011 (Table 3) and four trials between 20 Mar. to 10 Oct. 2012 (Table 4). Traps were checked a minimum of twice weekly and the treatments were re-randomized at each collection.\nAll adults and nymphs were removed from traps and recorded. Hercon Vaportape™ strips were changed at four week intervals and lures were changed at two week intervals. Comparisons of adult and nymphal captures used the SAS GLM procedure to evaluate effect of treatment and replicate followed by Tukey's HSD if the model was significant. Appropriate transformations were used to stabilize normality if needed. The effect of sex was dropped from all models because it was never a significant factor.",
  "key": {"[1]": {"conditions": "AFRS 2011, Trial One, 19 April-10 May"}, "[2]": {"conditions": "AFRS 2011, Trial Seven, 8-19 August"}, "[3]": {"conditions": "AFRS 2011, Trial Ten, 19 Sept.-4 Oct."}, "[4]": {"conditions": "Beltsville 2011, Trial One, 19 April-10 May"}},
  "data": [
    {"smiles": "CCC\\C=C/C=C/C=C/C(=O)OC", "note": "[Lure #3, Methyl (2E,4E,6Z)-decatrienoate]", "values": [
      {"measurement": "Mean number BMSB adults (±SE) captured", "setting": "[1]", "result": "0.00 ± 0.00", "unit": "per trap per sample"},
      {"measurement": "Mean number BMSB nymphs (±SE) captured", "setting": "[1]", "result": "0.00 ± 0.00", "unit": "per trap per sample"},
      {"measurement": "Mean number BMSB adults (±SE) captured", "setting": "[2]", "result": "1.97 ± 0.37", "unit": "a per trap per sample"},
      {"measurement": "Mean number BMSB nymphs (±SE) captured", "setting": "[2]", "result": "34.55 ± 5.85", "unit": "a per trap per sample"},
      {"measurement": "Mean number BMSB adults (±SE) captured", "setting": "[3]", "result": "22.76 ± 4.41", "unit": "a per trap per sample"},
      {"measurement": "Mean number BMSB nymphs (±SE) captured", "setting": "[3]", "result": "1.24 ± 0.34", "unit": "a per trap per sample"},
      {"measurement": "Mean number BMSB adults (±SE) captured", "setting": "[4]", "result": "0.02 ± 0.02", "unit": "ab per treatment"},
      {"measurement": "Mean number BMSB nymphs (±SE) captured", "setting": "[4]", "result": "0.00 ± 0.00", "unit": "per treatment"}
    ]}
  ]
}
